29 molecules from patent US11247987B2, “Inhibiting ubiquitin specific peptidase 30” (FORMA Therapeutics, Inc., priority 2017, dated 2022) can be followed below.

The term IC50 denotes the concentration needed to halve the response being measured.

This assay deals with T1, human recombinant USP30 (Homo sapiens, UniProt Q70CQ3).
T1 construct: purchased Boston Biochem E-582
T1 sequence (Q70CQ3 1-517): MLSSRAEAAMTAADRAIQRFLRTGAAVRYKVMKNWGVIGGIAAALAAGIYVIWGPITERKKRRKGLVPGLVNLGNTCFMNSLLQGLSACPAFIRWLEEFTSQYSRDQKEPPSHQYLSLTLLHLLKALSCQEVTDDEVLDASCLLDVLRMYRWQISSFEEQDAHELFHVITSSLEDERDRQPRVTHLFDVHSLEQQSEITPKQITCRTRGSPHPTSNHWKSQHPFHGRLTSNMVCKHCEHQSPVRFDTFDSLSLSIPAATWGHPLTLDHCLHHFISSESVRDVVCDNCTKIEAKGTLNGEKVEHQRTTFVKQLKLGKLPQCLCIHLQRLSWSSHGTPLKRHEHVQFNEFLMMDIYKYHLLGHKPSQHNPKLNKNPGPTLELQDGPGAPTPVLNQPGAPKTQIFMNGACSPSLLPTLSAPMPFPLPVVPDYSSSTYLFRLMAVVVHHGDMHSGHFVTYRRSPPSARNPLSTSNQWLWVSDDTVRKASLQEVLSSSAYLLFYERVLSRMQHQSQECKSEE
Put plainly: Ubiquitin-Rhodamine 110 Assay for USP30 Activity (USP30 Inhibitor Biochemical Assay). The note with it: 0.2 nM USP30, 25 nM Ub-Rh110, 30 min preincubation, 30 min at room temperature; read-out: USP30 potency range (USP30 biochemical IC50 assay, IC50 ranges). As to the method: Example A: Biochemical Assay: Ubiquitin-Rhodamine 110 Assay for USP30 Activity (USP30 Inhibitor Biochemical Assay)
The assay was performed in a final volume of 9 μL in assay buffer containing 20 mM Tris-HCl (pH 8.0, (1M Tris-HCl, pH 8.0 solution; Corning 46-031-CM)), 1 mM GSH (L-glutathione reduced, Sigma-Aldrich, G4251-100G), 0.03% BGG (0.22 μM filtered, Sigma, G7516-25G), and 0.01% Triton X-100 (Sigma, T9284-10L). Nanoliter quantities of 10-point, 3-fold serial dilution in DMSO were pre-dispensed into 1536 assay plates (Corning, #3724BC) for a final test concentration of 25 μM to 1.3 nM, top to lowest dose, respectively. Concentration and incubation times were optimized for the maximal signal-to-background while maintaining initial velocity conditions at a fixed substrate concentration. The final concentration of USP30 (human recombinant USP30, Boston Biochem, cat. # E-582) in the assay was 0.2 nM. […] 3 μL of 2×USP30 was added to assay plates (pre-stamped with compound), preincubated for 30 minutes and then treated with 3 μL of 2×Ub-Rh110. Plates were incubated for 30 minutes at room temperature before addition of 3 μL of stop solution (final concentration of 10 mM citric acid (Sigma, 251275-500G)). Fluorescence was read on the Envision (excitation at 485 nm and emission at 535 nm; Perkin Elmer) or on the PheraSTAR (excitation at 485 nm and emission at 535 nm; BMG Labtech).
For all assay formats data were reported as percent inhibition compared with control wells based on the following equation: % inh=1−((FLU−AveLow)/(AveHigh−AveLow)) where FLU=measured Fluorescence, AveLow=average Fluorescence of no enzyme control (n=16), and AveHigh=average Fluorescence of DMSO control (n=16). IC50 values were determined by curve fitting of the standard 4 parameter logistic fitting algorithm included in the Activity Base software package: IDBS XE Designer Model205. Data is fitted using the Levenburg Marquardt algorithm.
Regarding `N#CN[C@@H]1C[C@H]1C(=O)Nc1ncc(C2CCCCC2)s1` (relative stereo) [Compound 11-1, trans-2-(cyanoamino)-N-(5-cyclohexyl-1,3-thiazol-2-yl)cyclopropane-1-carboxamide], the IC50 fell in the range of 1000 to 10000 nM.

Take `N#CN[C@H]1C[C@H]1C(=O)Nc1ncc(C2CCCCC2)s1` (relative stereo) [Compound 11-2, cis-2-(cyanoamino)-N-(5-cyclohexyl-1,3-thiazol-2-yl)cyclopropane-1-carboxamide]: the IC50 lay within 1000 to 10000 nM.

For `CC1(C)CCCC[C@H]1c1ncc(NC(=O)[C@H]2C[C@H](NC#N)C2)s1` (single isomer, unassigned) [Compound 1-13], the IC50 is 100 to 1000 nM.

`N#CN[C@H]1C[C@H](C(=O)Nc2ncc([C@@H]3CCCC[C@H]3C(F)(F)F)s2)C1` (single isomer, unassigned) [Compound 1-35]: the IC50 was 100 to 1000 nM.

In the case of `N#CN[C@H]1C[C@H](N2C[C@@H](Nc3ncc(C4CCCCC4)s3)CC2=O)C1` (single isomer, unassigned) [Compound 6-1], the IC50 lay in the range of 100 to 1000 nM.

On to `CC(C)(C)c1sc(N2CC[C@]3(C[C@H](NC#N)C3)C2=O)nc1Cl` (single isomer, unassigned) [Compound 7-1, ([(2r,4s)-6-(5-tert-butyl-4-chloro-1,3-thiazol-2-yl)-5-oxo-6-azaspiro[3.4]octan-2-yl]amino)carbonitrile], for which the 50% inhibitory concentration (IC50) is < 100 nM.

For `CC(C)(C)c1sc(NC(=O)[C@]2(Cl)C[C@@H](NC#N)C2)nc1Cl` (single isomer, unassigned) [Compound 9-1, (1s,3s)-N-(5-tert-butyl-4-chloro-1,3-thiazol-2-yl)-1-chloro-3-(cyanoamino)cyclobutane-1-carboxamide], the half-inhibitory concentration (IC50) was < 100 nM.

Turning to `CC(C)(C)c1sc(NC(=O)[C@]2(Cl)C[C@H](NC#N)C2)nc1Cl` (single isomer, unassigned) [Compound 9-2, (1r,3r)-N-(5-tert-butyl-4-chloro-1,3-thiazol-2-yl)-1-chloro-3-(cyanoamino)cyclobutane-1-carboxamide], the IC50 fell in the range of 100 to 1000 nM.

For `N#CN[C@H]1C[C@H](C(=O)Nc2ncc(C3CCOCC3)s2)C1` [Compound 1-1, trans-3-(cyanoamino)-N-[5-(oxan-4-yl)-1,3-thiazol-2-yl]cyclobutane-1-carboxamide], the IC50 lay in the range of 1000 to 10000 nM.

Take `Cn1nc(-c2ccccc2)cc1NC(=O)[C@H]1C[C@H](NC#N)C1` [Compound 1-2, (1r,3r)-3-(cyanoamino)-N-(1-methyl-3-phenyl-1H-pyrazol-5-yl)cyclobutane-1-carboxamide]: the half-inhibitory concentration (IC50) lay within 100 to 1000 nM.

As to `N#CN[C@H]1C[C@H](C(=O)Nc2cnc(C3CCCCC3)s2)C1` [Compound 1-3, (1r,3r)-3-(cyanoamino)-N-(2-cyclohexyl-1,3-thiazol-5-yl)cyclobutane-1-carboxamide], the half-inhibitory concentration (IC50) is < 100 nM.

As to `CN(c1cnc(C2CCCCC2)s1)C(=O)[C@H]1C[C@H](NC#N)C1` [Compound 1-4, (1r,3r)-3-(cyanoamino)-N-(2-cyclohexyl-1,3-thiazol-5-yl)-N-methylcyclobutane-1-carboxamide], the IC50 lay in the range of 100 to 1000 nM.

For `CN(c1ncc(C(C)(C)C)s1)C(=O)[C@H]1C[C@H](NC#N)C1` [Compound 1-5, (1r,3r)-N-(5-tert-butyl-1,3-thiazol-2-yl)-3-(cyanoamino)-N-methylcyclo-butane-1-carboxamide], the IC50 lay in the range of 100 to 1000 nM.

Regarding `Cn1nc(C2CCCCC2)cc1NC(=O)[C@H]1C[C@H](NC#N)C1` [Compound 1-6, (1r,3r)-3-(cyanoamino)-N-(3-cyclohexyl-1-methyl-1H-pyrazol-5-yl)cyclobutane-1-carboxamide], the 50% inhibitory concentration (IC50) lay in the range of 100 to 1000 nM.

Regarding `Cc1nc(C2CCCCC2)sc1NC(=O)[C@H]1C[C@H](NC#N)C1` [Compound 1-7, (1r,3r)-3-(cyanoamino)-N-(2-cyclohexyl-4-methyl-1,3-thiazol-5-yl)cyclobutane-1-carboxamide], the IC50 was 100 to 1000 nM.

Take `CC(C)Oc1ccccc1-c1ncc(NC(=O)[C@H]2C[C@H](NC#N)C2)s1` [Compound 1-8, (1r,3r)-3-(cyanoamino)-N-{2-[2-(propan-2-yloxy)phenyl]-1,3-thiazol-5-yl}cyclobutane-1-carboxamide]: the IC50 was 100 to 1000 nM.

Take `N#CN[C@H]1C[C@H](C(=O)Nc2cnc(C3CC(F)(F)C3)s2)C1` [Compound 1-9, (1r,3r)-3-(cyanoamino)-N-[2-(3,3-difluoro-cyclobutyl)-1,3-thiazol-5-yl]cyclobutane-1-carboxamide]: the 50% inhibitory concentration (IC50) fell in the range of 100 to 1000 nM.

In the case of `N#CN[C@H]1C[C@H](C(=O)Nc2nc(Cl)c(C3CCCCC3)s2)C1` [Compound 1-10, (1r,3r)-N-(4-chloro-5-cyclohexyl-1,3-thiazol-2-yl)-3-(cyanoamino)cyclo-butane-1-carboxamide], the 50% inhibitory concentration (IC50) was < 100 nM.

For `C[C@]1(C(=O)Nc2cnc(C3CCCCC3)s2)C[C@H](NC#N)C1` [Compound 1-11, (1r,3s)-3-(cyanoamino)-N-(2-cyclohexyl-1,3-thiazol-5-yl)-1-methylcyclobutane-1-carboxamide], the 50% inhibitory concentration (IC50) is < 100 nM.

In the case of `CC1(C)CCCC[C@@H]1c1ncc(NC(=O)[C@H]2C[C@H](NC#N)C2)s1` [Compound 1-12, (1r,3r)-3-(cyanoamino)-N-{2-[(1S)-2,2-dimethylcyclohexyl]-1,3-thiazol-5-yl}cyclobutane-1-carboxamide], the 50% inhibitory concentration (IC50) is < 100 nM.

For `N#CN[C@H]1C[C@H](C(=O)Nc2sc(C3CCCCC3)nc2Cl)C1` [Compound 1-14, (1r,3r)-N-(4-chloro-2-cyclohexyl-1,3-thiazol-5-yl)-3-(cyanoamino)cyclo-butane-1-carboxamide], the IC50 lay within 100 to 1000 nM.

Take `CC1(C)[C@H](NC#N)C[C@H]1C(=O)Nc1cnc(C2CCCCC2)s1` [Compound 1-15, (1R,3R)-3-(cyanoamino)-N-(2-cyclohexyl-1,3-thiazol-5-yl)-2,2-dimethylcyclobutane-1-carboxamide]: the IC50 was 100 to 1000 nM.

For `COCc1nc(NC(=O)[C@H]2C[C@H](NC#N)C2)sc1C1CCCCC1` [Compound 1-16, (1r,3r)-3-(cyanoamino)-N-[5-cyclohexyl-4-(methoxymethyl)-1,3-thiazol-2-yl]cyclobutane-1-carboxamide], the IC50 was < 100 nM.

On to `N#CN[C@H]1C[C@H](C(=O)Nc2sc(C3CCCCC3)nc2F)C1` [Compound 1-17, (1r,3r)-3-(cyanoamino)-N-(2-cyclohexyl-4-fluoro-1,3-thiazol-5-yl)cyclobutane-1-carboxamide], for which the half-inhibitory concentration (IC50) was in the range of 100 to 1000 nM.

Turning to `N#CN[C@H]1C[C@@H](C(=O)Nc2nc(Cl)c(C3CCCCC3)s2)C1` [Compound 1-18, (1s,3s)-N-(4-chloro-5-cyclohexyl-1,3-thiazol-2-yl)-3-(cyanoamino)cyclo-butane-1-carboxamide], the IC50 lay in the range of 100 to 1000 nM.

Consider `CC(C)(C)c1sc(NC(=O)[C@H]2C[C@H](NC#N)C2)nc1Cl` [Compound 1-19, (1r,3r)-N-(5-tert-butyl-4-chloro-1,3-thiazol-2-yl)-3-(cyanoamino)cyclo-butane-1-carboxamide], for which the half-inhibitory concentration (IC50) was < 100 nM.

With `N#CN[C@H]1C[C@H](C(=O)Nc2ccc(Cl)c(C(F)(F)F)c2)C1` [Compound 1-20, (1r,3r)-N-[4-chloro-3-(trifluoromethyl)phenyl]-3-(cyano-amino)cyclobutane-1-carboxamide], the IC50 is 1000 to 10000 nM.

Turning to `C[C@@H]1CCCC[C@@H]1c1cnc(NC(=O)[C@H]2C[C@H](NC#N)C2)s1` [Compound 1-21, (1r,3r)-3-(cyanoamino)-N-{5-[(1S,2R)-2-methylcyclohexyl]-1,3-thiazol-2-yl}cyclobutane-1-carboxamide], the IC50 was 100 to 1000 nM.

Turning to `C[C@H]1CCCC[C@H]1c1cnc(NC(=O)[C@H]2C[C@H](NC#N)C2)s1` [Compound 1-22, (1r,3r)-3-(cyanoamino)-N-{5-[(1R,2S)-2-methylcyclohexyl]-1,3-thiazol-2-yl}cyclobutane-1-carboxamide], the half-maximal inhibitory concentration (IC50) fell in the range of 100 to 1000 nM.
